Measured values: patent US20260007758A1, “SO[…]-2 RECEPTOR (SST2R) NON-PEPTIDE DRUG CONJUGATES AND USES THEREOF” (Crinetics Pharmaceuticals, Inc., priority 2024, published 2026)
Like-named read-outs stand apart in the source and are kept apart here.

How the values were obtained:
Type in all cases: cell-based
[1] = target: T1, human somatostatin receptor subtype 2 (Homo sapiens, UniProt P30874); experiment: Functional assay for SSTR2 agonists (HTRF cAMP); details: CHO-K1 cells stably expressing human SST2, NKH477-stimulated cAMP, 20 min at 37 C
T1 construct: expressed in transfected cells
Procedure, shortened: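 Agonist activity read as fall in intracellular cAMP: HTRF 665/620 nm ratio regressed to a cAMP standard curve, EC50 fitted. Stable human SSTR2 CHO-K1 cells exposed 20 min at 37 °C to compound, final concentrations typically 0-10,000 nM.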

SST2 = target: T2, SST2 (Homo sapiens, UniProt P30874); experiment: PathHunter CHO-K1 SST2 Internalization Assay; details: PathHunter CHO-K1 SST2 cells, 90 min at 37 C, luminescence
T2 construct: host or cells: PathHunter CHO-K1 SST2 cells
Procedure, shortened: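 Four-parameter nonlinear fits of background-corrected luminescence (duplicate means) gave IC50s. NDCs were serially diluted 1:3 over 11 points from a 10 uM final top concentration and incubated 90 min at 37 C with human SST2 CHO-K1 cells plated 48 h earlier at 2500/well. Beta-Glo read-out developed 60 min at RT.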

[2] = system: NCI-H524 human small cell lung cancer cells; experiment: H524 assay: inhibition of cell proliferation (CellTiter Glo); details: 2 h treatment, washout, additional 70 h incubation
Procedure, shortened: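 Proliferation was measured by CellTiter Glo 70 h after a washout that followed a 2 h pulse of NDC. Doses were an 11-point, two-fold dilution series from 1 uM. IC50 was fitted with a four-parameter model to luminescence-based % inhibition relative to control cells.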

T2 sequence (P30874 whole entry): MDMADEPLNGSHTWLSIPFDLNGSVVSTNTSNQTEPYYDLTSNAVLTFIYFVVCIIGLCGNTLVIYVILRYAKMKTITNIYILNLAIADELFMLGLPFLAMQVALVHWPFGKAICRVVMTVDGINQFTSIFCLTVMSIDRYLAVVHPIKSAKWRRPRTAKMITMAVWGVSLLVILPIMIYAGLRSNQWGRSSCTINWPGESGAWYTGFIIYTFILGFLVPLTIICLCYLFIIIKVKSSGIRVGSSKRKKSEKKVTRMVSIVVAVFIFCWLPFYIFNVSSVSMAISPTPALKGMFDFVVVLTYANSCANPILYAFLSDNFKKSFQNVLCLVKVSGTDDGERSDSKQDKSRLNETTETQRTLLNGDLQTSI
T1 sequence (P30874 whole entry): as above

SMILES: CC[C@H](C)[C@@H]([C@@H](CC(=O)N1CCC[C@H]1[C@H](OC)[C@@H](C)C(=O)N[C@H](C)[C@@H](O)c1ccccc1)OC)N(C)C(=O)[C@@H](NC(=O)[C@H](C(C)C)N(C)C(=O)OCc1ccc(NC(=O)[C@H](C)NC(=O)[C@@H](NC(=O)CCOCCC(=O)N(C)CC(=O)NCCNc2ncc(-c3cc(C)cc(F)c3)c(N3CCC(N)CC3)c2-c2nc3ccc(Cl)cc3[nH]2)C(C)C)c(O[C@@H]2O[C@H](C(=O)O)[C@@H](O)[C@H](O)[C@H]2O)c1)C(C)C [Compound 134]
- EC50 ([1]; read-out: hSST2 cAMP Avg EC50): 0.11 nM
- EC50 (SST2; read-out: Internalization EC50): 2.1 nM
- EC50 [2]: 1200 nM

SMILES: CC[C@H](C)[C@@H]([C@@H](CC(=O)N1CCC[C@H]1[C@H](OC)[C@@H](C)C(=O)N[C@H](C)[C@@H](O)c1ccccc1)OC)N(C)C(=O)[C@@H](NC(=O)[C@H](C(C)C)N(C)C(=O)OCc1ccc(NC(=O)[C@H](CCCNC(N)=O)NC(=O)[C@@H](NC(=O)C[C@@H](N)C(=O)NCCOCCC(=O)NCCNc2ncc(-c3cc(C)cc(F)c3)c(N3CCC(N)CC3)c2-c2nc3ccc(Cl)cc3[nH]2)C(C)C)c(O[C@@H](C)C(=O)O)c1)C(C)C [Compound 200]
- EC50 ([1]; read-out: hSST2 cAMP Avg EC50): 0.18 nM
- EC50 (SST2; read-out: Internalization EC50): 3.9 nM
- EC50 [2]: 23 nM

SMILES: CC[C@H](C)[C@@H]([C@@H](CC(=O)N1CCC[C@H]1[C@H](OC)[C@@H](C)C(=O)N[C@H](C)[C@@H](O)c1ccccc1)OC)N(C)C(=O)[C@@H](NC(=O)[C@H](C(C)C)N(C)C(=O)OCc1ccc(NC(=O)[C@H](CCCNC(N)=O)NC(=O)[C@@H](NC(=O)CCOCCC(=O)NCCNc2ncc(-c3cc(C)cc(F)c3)c(N3CCC(N)CC3)c2-c2nc3ccc(Cl)cc3[nH]2)C(C)C)c(OC)c1)C(C)C [Compound 11]
- EC50 ([1]; read-out: hSST2 cAMP Avg EC50): 0.33 nM
- EC50 (SST2; read-out: Internalization EC50): 10 nM
- EC50 [2]: 14 nM

SMILES: CC[C@H](C)[C@@H]([C@@H](CC(=O)N1CCC[C@H]1[C@H](OC)[C@@H](C)C(=O)N[C@H](C)[C@@H](O)c1ccccc1)OC)N(C)C(=O)[C@@H](NC(=O)[C@H](C(C)C)N(C)C(=O)OCc1ccc(NC(=O)[C@H](C)NC(=O)[C@@H](NC(=O)[C@@H](CS(=O)(=O)O)NC(=O)CCOCCC(=O)NCCNc2ncc(-c3cc(C)cc(F)c3)c(N3CCC(N)CC3)c2-c2nc3ccc(Cl)cc3[nH]2)C(C)C)c(O[C@@H]2O[C@H](C(=O)NCCN)[C@@H](O)[C@H](O)[C@H]2O)c1)C(C)C [Compound 41]
- EC50 ([1]; read-out: hSST2 cAMP Avg EC50): 0.081 nM
- EC50 (SST2; read-out: Internalization EC50): 9 nM
- EC50 [2]: 40 nM

SMILES: CC[C@H](C)[C@@H]([C@@H](CC(=O)N1CCC[C@H]1[C@H](OC)[C@@H](C)C(=O)N[C@H](C)[C@@H](O)c1ccccc1)OC)N(C)C(=O)[C@@H](NC(=O)[C@H](C(C)C)N(C)C(=O)OCc1ccc(NC(=O)[C@H](CCCNC(N)=O)NC(=O)[C@@H](NC(=O)c2cc(NCCOCCC(=O)N(C)CC(=O)NCCNc3ncc(-c4cc(C)cc(F)c4)c(N4CCC(N)CC4)c3-c3nc4ccc(Cl)cc4[nH]3)cc(C(=O)NCC(=O)O)c2)C(C)C)cc1)C(C)C [Compound 162]
- EC50 ([1]; read-out: hSST2 cAMP Avg EC50): 0.27 nM
- EC50 (SST2; read-out: Internalization EC50): 4.7 nM
- EC50 [2]: 60 nM

SMILES: CC[C@H](C)[C@@H]([C@@H](CC(=O)N1CCC[C@H]1[C@H](OC)[C@@H](C)C(=O)N[C@H](C)[C@@H](O)c1ccccc1)OC)N(C)C(=O)[C@@H](NC(=O)[C@H](C(C)C)N(C)C(=O)OCc1ccc(NC(=O)[C@H](CCCNC(N)=O)NC(=O)[C@@H](NC(=O)CCOCCC(=O)NCCNc2ncc(-c3cc(C)cc(F)c3)c(N3CCC(N)CC3)c2-c2nc3ccc(Cl)cc3[nH]2)C(C)C)cc1C(=O)NOC)C(C)C [Compound 87]
- EC50 ([1]; read-out: hSST2 cAMP Avg EC50): 0.1 nM
- EC50 (SST2; read-out: Internalization EC50): 4.6 nM
- EC50 [2]: 600 nM

SMILES: CC[C@H](C)[C@@H]([C@@H](CC(=O)N1CCC[C@H]1[C@H](OC)[C@@H](C)C(=O)N[C@H](C)[C@@H](O)c1ccccc1)OC)N(C)C(=O)[C@@H](NC(=O)[C@H](C(C)C)N(C)C(=O)OCc1ccc(NC(=O)[C@H](CCCNC(N)=O)NC(=O)[C@@H](NC(=O)[C@@H](CS(=O)(=O)O)NC(=O)CCOCCC(=O)NCCNc2ncc(-c3cc(C)cc(F)c3)c(N3CCC(N)CC3)c2-c2nc3ccc(Cl)cc3[nH]2)C(C)C)cc1C(=O)NCCN)C(C)C [Compound 29]
- EC50 ([1]; read-out: hSST2 cAMP Avg EC50): 0.076 nM
- EC50 (SST2; read-out: Internalization EC50): 8.5 nM
- EC50 [2]: 2.6 nM

SMILES: CC[C@H](C)[C@@H]([C@@H](CC(=O)N1CCCC1[C@H](OC)[C@@H](C)C(=O)N[C@H](C)[C@@H](O)c1ccccc1)OC)N(C)C(=O)[C@@H](NC(=O)[C@H](C(C)C)N(C)C(=O)OCc1ccc(NC(=O)[C@H](CCCNC(N)=O)NC(=O)[C@@H](NC(=O)[C@H](Cc2c[nH]cn2)NC(=O)CCOCCC(=O)NCCNc2ncc(-c3cc(C)cc(F)c3)c(N3CCC(N)CC3)c2-c2nc3ccc(Cl)cc3[nH]2)C(C)C)c(OCC(=O)O)c1)C(C)C (stereo partly drawn) [Compound 202]
- EC50 ([1]; read-out: hSST2 cAMP Avg EC50): 0.14 nM
- EC50 (SST2; read-out: Internalization EC50): 4.6 nM
- EC50 [2]: 14 nM

SMILES: CC[C@@H](C)[C@H]([C@H](CC(=O)N1CCC[C@@H]1[C@@H](OC)[C@H](C)C(=O)N[C@@H](C)[C@H](O)c1ccccc1)OC)N(C)C(=O)[C@H](NC(=O)[C@@H](C(C)C)N(C)C(=O)OCc1ccc(NC(=O)[C@@H](CCCNC(N)=O)NC(=O)[C@H](NC(=O)[C@@H](CCC(=O)O)NC(=O)CCOCCOCCNC(=O)CCc2cn(CCCC[C@H](NC(=O)CCOCCC(=O)NCCNc3ncc(-c4cc(C)cc(F)c4)c(N4CCC(N)CC4)c3-c3nc4ccc(Cl)cc4[nH]3)C(=O)NCCOCCOCCC(=O)N[C@@H](CCC(=O)O)C(=O)N[C@H](C(=O)N[C@@H](CCCNC(N)=O)C(=O)Nc3ccc(COC(=O)N(C)[C@H](C(=O)N[C@H](C(=O)N(C)[C@@H]([C@@H](C)CC)[C@@H](CC(=O)N4CCC[C@H]4[C@H](OC)[C@@H](C)C(=O)N[C@H](C)[C@@H](O)c4ccccc4)OC)C(C)C)C(C)C)cc3)C(C)C)nn2)C(C)C)cc1)C(C)C [Compound 245]
- EC50 ([1]; hSST2 cAMP Avg EC50 (nM)): 11 nM
- EC50 (SST2; Internalization EC50 (nM)): 440 nM
- EC50 [2]: 140 nM

SMILES: CC[C@H](C)[C@@H]([C@@H](CC(=O)N1CCC[C@H]1[C@H](OC)[C@@H](C)C(=O)N[C@H](C)[C@@H](O)c1ccccc1)OC)N(C)C(=O)[C@@H](NC(=O)[C@H](C(C)C)N(C)C(=O)OCc1ccc(NC(=O)[C@H](CCCNC(N)=O)NC(=O)[C@@H](NC(=O)C[C@@H](N)C(=O)NCCOCCOCCOCCOCCC(=O)NCCNc2ncc(-c3cc(C)cc(F)c3)c(N3CCC(N)CC3)c2-c2nc3ccc(Cl)cc3[nH]2)C(C)C)c(OCC(=O)O)c1)C(C)C [Compound 23]
- EC50 ([1]; read-out: hSST2 cAMP Avg EC50): 0.29 nM
- EC50 (SST2; read-out: Internalization EC50): 20 nM
- EC50 [2]: 32 nM

SMILES: CC[C@H](C)[C@@H]([C@@H](CC(=O)N1CCC[C@H]1[C@H](OC)[C@@H](C)C(=O)N[C@H](C)[C@@H](O)c1ccccc1)OC)N(C)C(=O)[C@@H](NC(=O)[C@H](C(C)C)N(C)C(=O)OCc1ccc(NC(=O)[C@H](C)NC(=O)[C@@H](NC(=O)CCOCCC(=O)N(C)CC(=O)NCCNc2ncc(-c3cc(C)cc(F)c3)c(N3CCC(N)CC3)c2-c2nc3ccc(Cl)cc3[nH]2)C(C)C)c(O[C@@H]2O[C@H](C(=O)NCS(=O)(=O)O)[C@@H](O)[C@H](O)[C@H]2O)c1)C(C)C [Compound 50]
- EC50 ([1]; read-out: hSST2 cAMP Avg EC50): 0.13 nM
- EC50 (SST2; read-out: Internalization EC50): 6.8 nM
- EC50 [2]: 36 nM

SMILES: CC[C@H](C)[C@@H]([C@@H](CC(=O)N1CCC[C@H]1[C@H](OC)[C@@H](C)C(=O)N[C@H](C)[C@@H](O)c1ccccc1)OC)N(C)C(=O)[C@@H](NC(=O)[C@H](C(C)C)N(C)C(=O)OCc1ccc(NC(=O)[C@H](CCCNC(N)=O)NC(=O)[C@@H](NC(=O)C[C@@H](N)C(=O)NCCOCCC(=O)NCCNc2ncc(-c3cc(C)cc(F)c3)c(N3CCC(N)CC3)c2-c2nc3ccc(Cl)cc3[nH]2)C(C)C)c(OCC(=O)O)c1)C(C)C [Compound 22]
- EC50 ([1]; read-out: hSST2 cAMP Avg EC50): 0.17 nM
- EC50 (SST2; read-out: Internalization EC50): 17 nM
- EC50 [2]: 22 nM

SMILES: CC[C@H](C)[C@@H]([C@@H](CC(=O)N1CCC[C@H]1[C@H](OC)[C@@H](C)C(=O)N[C@H](C)[C@@H](O)c1ccccc1)OC)N(C)C(=O)[C@@H](NC(=O)[C@H](C(C)C)N(C)C(=O)OCc1ccc(NC(=O)[C@H](CCCNC(N)=O)NC(=O)[C@@H](NC(=O)c2cc(NCCOCCOCCOCCC(=O)NCCNc3ncc(-c4cc(C)cc(F)c4)c(N4CCC(N)CC4)c3-c3nc4ccc(Cl)cc4[nH]3)cc(C(=O)OC)c2)C(C)C)cc1)C(C)C [Compound 178]
- EC50 ([1]; read-out: hSST2 cAMP Avg EC50): 0.27 nM
- EC50 (SST2; read-out: Internalization EC50): 5.6 nM
- EC50 [2]: 620 nM

SMILES: CC[C@H](C)[C@@H]([C@@H](CC(=O)N1CCC[C@H]1[C@H](OC)[C@@H](C)C(=O)N[C@H](C)[C@@H](O)c1ccccc1)OC)N(C)C(=O)[C@@H](NC(=O)[C@H](C(C)C)N(C)C(=O)OCc1ccc(NC(=O)[C@H](C)NC(=O)[C@@H](NC(=O)CCOCCC(=O)NCCNc2ncc(-c3cc(C)cc(F)c3)c(N3CCC(N)CC3)c2-c2cc3ccc(C#N)cc3[nH]2)C(C)C)c(O[C@@H]2O[C@H](C(=O)O)[C@@H](O)[C@H](O)[C@H]2O)c1)C(C)C [Compound 119]
- EC50 ([1]; read-out: hSST2 cAMP Avg EC50): 0.11 nM
- EC50 (SST2; read-out: Internalization EC50): 11 nM
- EC50 [2]: 34 nM

SMILES: CC[C@H](C)[C@@H]([C@@H](CC(=O)N1CCC[C@H]1[C@H](OC)[C@@H](C)C(=O)N[C@H](C)[C@@H](O)c1ccccc1)OC)N(C)C(=O)[C@@H](NC(=O)[C@H](C(C)C)N(C)C(=O)OCc1ccc(NC(=O)[C@H](C)NC(=O)[C@@H](NC(=O)CCOCCC(=O)N(C)CC(=O)NCCNc2ncc(-c3cc(C)cc(F)c3)c(N3CCC(N)CC3)c2-c2nc3ccc(Cl)cc3[nH]2)C(C)C)c(O[C@@H]2O[C@H](C(=O)NCCO)[C@@H](O)[C@H](O)[C@H]2O)c1)C(C)C [Compound 206]
- EC50 ([1]; read-out: hSST2 cAMP Avg EC50): 0.12 nM
- EC50 (SST2; read-out: Internalization EC50): 4.5 nM
- EC50 [2]: 14 nM
